Data on 1 substance can be found in patent publication US20200338229A1, “ANTIMICROBIAL ADHESIVE DRESSINGS” (priority 2015, published 2020).

Where two headings read alike, the source gives them in different places.

For data set [1] the following is noted: in the silicone adhesive of this invention.
For data set [2] the following is noted: cited from earlier work.
The conditions of data set [3]: in the presence of light; cited from earlier work.

For the substance Polyhexamethylene biguanide [PHMB], in data set [1] (autoclaving at 121° C.), the stability to autoclaving result is “stable”. Further, the “stability to curing temperature” value in data set [1] (curing temperature of 140° C.) is “stable”. In addition, the solubility entry in data set [2] (in oils and hydrocarbons and silicone elastomers) was “not soluble”. Besides, the solubility entry in data set [2] (in water, alcohols and glycols) is recorded as “soluble”. In data set [3], the “pH range of stability” value is 4-10 pH and the “temperature up to which stable” value is “up to 80 °C”.
